According to PMC11859184, “Synthesis and Evaluation of ^68Ga- and ^177Lu-Labeled [diF-Pro^14]Bombesin(6−14) Analogs for Detection and Radioligand Therapy of Gastrin-Releasing Peptide Receptor-Expressing Cancer” (Pharmaceuticals, 2025):
Like-named read-outs stand apart in the source and are kept apart here. Values belong to the compound of their own block, whether it stands above or below them.

Assays:
GRPR = target: T1, GRPR (Homo sapiens, UniProt P30550); test: Fluorometric intracellular calcium release assay using PC-3 cells; assay type: cell-based; settings: 50 nM ligand, n = 4
T1 construct: host or cells: PC-3 cells
Description: The agonist/antagonist characteristics of LW02060, Ga-LW02060, Lu-LW02060, LW02080, Ga-LW02080, and Lu-LW02080 were determined following published procedures. The PC-3 cells were obtained from ATCC (via Cedarlane, Burlington, ON, Canada). A 96-well clear bottom black plate was seeded with 5 × 10^4 PC-3 cells in 100 μL growth media per well 24 h before the assay. The loading buffer (100 μL/well) containing a calcium-sensitive dye (FLIPR Calcium 6 assay kit from Molecular Devices, San Jose, CA, USA) was added into the 96-well plate, followed by 1 h incubation at 37 °C. The plate was then transferred into a FlexStation 3 microplate reader (Molecular Devices, San Jose, CA, USA). LW02060 (50 nM), Ga-LW02060 (50 nM), Lu-LW02060 (50 nM), LW02080 (50 nM), Ga-LW02080 (50 nM), Lu-LW02080 (50 nM), [D-Phe^6,Leu-NHEt^13,des-Met^14]Bombesin(6–14) (50 nM, antagonist control), bombesin (50 nM, agonist control), adenosine triphosphate (ATP, 50 nM, positive control), or DPBS (blank control) was added, and the fluorescent signals were measured for 2 min (λEx = 485 nm; λEm = 525 nm; n = 4). The relative fluorescent units (RFU = max − min) were calculated to determine the agonistic/antagonistic characteristics of LW02060, Ga-LW02060, Lu-LW02060, LW02080, Ga-LW02080, and Lu-LW02080, respectively.

[1] = Ex vivo biodistribution of 68Ga-labeled tracers in PC-3 tumor-bearing mice; settings: mouse, 1 h pi; for tissue to tissue ratio at 1 h: male, NOD.Cg-Rag1^tm1Mom Il2rg^tm1Wjl/SzJ (NRG), iv, total radioactivity; for tissue uptake at 1 h: intravenous
Description: PET/CT imaging and biodistribution studies were conducted using male NOD.Cg-Rag1^tm1Mom Il2rg^tm1Wjl/SzJ (NRG) mice following previously published procedures. The studies were carried out in compliance with the guidelines established by the Canadian Council on Animal Care and approved by Animal Ethics Committee of the University of British Columbia (protocol number A20-0113, approved on 30 September 2022). The mice were anaesthetized and subcutaneously implanted with 5 × 10^6 PC-3 cells (100 µL; 1:1 PBS/Matrigel) behind the left shoulder. PET/CT imaging and biodistribution studies were performed once the tumors reached a diameter of 5–8 mm, typically after approximately 4 weeks of growth.
For ex vivo biodistribution studies, the mice were injected with the ^68Ga-labeled tracer (2–4 MBq) via a lateral caudal tail vein. For blocking [^68Ga]Ga-LW02060, the mice were co-injected with 100 μg of [D-Phe^6,Leu-NHEt^13,des-Met^14]Bombesin(6–14). For blocking [^68Ga]Ga-LW02080, the mice were co-injected with 100 μg of its nonradioactive standard Ga-LW02080. At 1 h pi, the mice were euthanized by CO2 inhalation. Blood and organs/tissues of interest were collected, weighed, and counted using a gamma counter.

T1 sequence (P30550 whole entry): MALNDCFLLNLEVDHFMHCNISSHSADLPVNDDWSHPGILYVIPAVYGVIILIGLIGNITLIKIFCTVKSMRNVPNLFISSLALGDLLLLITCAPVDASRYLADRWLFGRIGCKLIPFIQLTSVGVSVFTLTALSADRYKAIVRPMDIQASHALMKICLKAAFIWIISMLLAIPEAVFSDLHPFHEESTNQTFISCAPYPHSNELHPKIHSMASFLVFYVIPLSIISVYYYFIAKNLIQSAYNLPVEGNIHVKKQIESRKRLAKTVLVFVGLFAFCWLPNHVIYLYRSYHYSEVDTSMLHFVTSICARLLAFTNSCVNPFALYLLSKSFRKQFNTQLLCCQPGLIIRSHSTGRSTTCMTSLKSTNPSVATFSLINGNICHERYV

intracellular calcium release (GRPR): 286 ± 9.44 RFU
SMILES: Nc1ncnc2c1ncn2[C@@H]1O[C@H](COP(=O)(O)OP(=O)(O)OP(=O)(O)O)[C@@H](O)[C@H]1O [ATP, adenosine triphosphate, reference compound]

tissue to tissue ratio at 1 h ([1]; tumor/blood, blocked (100 µg blocking agent co-injected), read-out: Tumor/blood uptake ratio): 3.72 ± 0.74
tissue to tissue ratio at 1 h ([1]; tumor/blood, n = 4, read-out: Tumor/blood uptake ratio): 29.1 ± 3.62
tissue to tissue ratio at 1 h ([1]; tumor/bone, blocked (100 µg blocking agent co-injected), read-out: Tumor/bone uptake ratio): 22.3 ± 8.24
tissue to tissue ratio at 1 h ([1]; tumor/bone, n = 4, read-out: Tumor/bone uptake ratio): 179 ± 46.9
tissue to tissue ratio at 1 h ([1]; tumor/kidney, blocked (100 µg blocking agent co-injected), read-out: Tumor/kidney uptake ratio): 0.54 ± 0.03
tissue to tissue ratio at 1 h ([1]; tumor/kidney, n = 4, read-out: Tumor/kidney uptake ratio): 4.86 ± 0.76
tissue to tissue ratio at 1 h ([1]; tumor/muscle, blocked (100 µg blocking agent co-injected), read-out: Tumor/muscle uptake ratio): 17.7 ± 3.85
tissue to tissue ratio at 1 h ([1]; tumor/muscle, n = 4, read-out: Tumor/muscle uptake ratio): 141 ± 19
tissue to tissue ratio at 1 h ([1]; tumor/pancreas, blocked (100 µg blocking agent co-injected), read-out: Tumor/pancreas uptake ratio): 2.87 ± 0.84
tissue to tissue ratio at 1 h ([1]; tumor/pancreas, n = 4, read-out: Tumor/pancreas uptake ratio): 5.52 ± 0.78
tissue uptake at 1 h ([1]; PC-3 tumor, 100 ug, blocked (100 µg blocking agent co-injected), read-out: PC-3 tumor uptake): 6.11 ± 0.42 %ID/g
tissue uptake at 1 h ([1]; PC-3 tumor, n = 4, read-out: PC-3 tumor uptake): 16.8 ± 2.7 %ID/g
tissue uptake at 1 h ([1]; adrenal glands, 100 ug, blocked (100 µg blocking agent co-injected), read-out: Adrenal glands uptake): 0.67 ± 0.03 %ID/g
tissue uptake at 1 h ([1]; adrenal glands, n = 4, read-out: Adrenal glands uptake): 0.66 ± 0.16 %ID/g
tissue uptake at 1 h ([1]; blood, 100 ug, blocked (100 µg blocking agent co-injected), read-out: Blood uptake): 1.71 ± 0.44 %ID/g
tissue uptake at 1 h ([1]; blood, n = 4, read-out: Blood uptake): 0.54 ± 0.03 %ID/g
tissue uptake at 1 h ([1]; bone, 100 ug, blocked (100 µg blocking agent co-injected), read-out: Bone uptake): 0.29 ± 0.07 %ID/g
tissue uptake at 1 h ([1]; bone, n = 4, read-out: Bone uptake): 0.1 ± 0.04 %ID/g
tissue uptake at 1 h ([1]; brain, 100 ug, blocked (100 µg blocking agent co-injected), read-out: Brain uptake): 0.05 ± 0.01 %ID/g
tissue uptake at 1 h ([1]; brain, n = 4, read-out: Brain uptake): 0.02 ± 0.01 %ID/g
tissue uptake at 1 h ([1]; fat, 100 ug, blocked (100 µg blocking agent co-injected), read-out: Fat uptake): 0.27 ± 0.1 %ID/g
tissue uptake at 1 h ([1]; fat, n = 4, read-out: Fat uptake): 0.05 ± 0.02 %ID/g
tissue uptake at 1 h ([1]; heart, 100 ug, blocked (100 µg blocking agent co-injected), read-out: Heart uptake): 0.52 ± 0.14 %ID/g
tissue uptake at 1 h ([1]; heart, n = 4, read-out: Heart uptake): 0.2 ± 0.05 %ID/g
tissue uptake at 1 h ([1]; kidneys, 100 ug, blocked (100 µg blocking agent co-injected), read-out: Kidneys uptake): 11.3 ± 0.97 %ID/g
tissue uptake at 1 h ([1]; kidneys, n = 4, read-out: Kidneys uptake): 3.58 ± 1.14 %ID/g
tissue uptake at 1 h ([1]; large intestine, 100 ug, blocked (100 µg blocking agent co-injected), read-out: Large intestine uptake): 0.54 ± 0.13 %ID/g
tissue uptake at 1 h ([1]; large intestine, n = 4, read-out: Large intestine uptake): 0.61 ± 0.1 %ID/g
tissue uptake at 1 h ([1]; liver, 100 ug, blocked (100 µg blocking agent co-injected), read-out: Liver uptake): 1.11 ± 0.43 %ID/g
tissue uptake at 1 h ([1]; liver, n = 4, read-out: Liver uptake): 0.37 ± 0.08 %ID/g
tissue uptake at 1 h ([1]; lungs, 100 ug, blocked (100 µg blocking agent co-injected), read-out: Lungs uptake): 1.52 ± 0.39 %ID/g
tissue uptake at 1 h ([1]; lungs, n = 4, read-out: Lungs uptake): 0.61 ± 0.15 %ID/g
tissue uptake at 1 h ([1]; muscle, 100 ug, blocked (100 µg blocking agent co-injected), read-out: Muscle uptake): 0.35 ± 0.08 %ID/g
tissue uptake at 1 h ([1]; muscle, n = 4, read-out: Muscle uptake): 0.12 ± 0.03 %ID/g
tissue uptake at 1 h ([1]; pancreas, 100 ug, blocked (100 µg blocking agent co-injected), read-out: Pancreas uptake): 2.25 ± 0.59 %ID/g
tissue uptake at 1 h ([1]; pancreas, n = 4, read-out: Pancreas uptake): 3.12 ± 0.89 %ID/g
tissue uptake at 1 h ([1]; small intestine, 100 ug, blocked (100 µg blocking agent co-injected), read-out: Small intestine uptake): 0.72 ± 0.02 %ID/g
tissue uptake at 1 h ([1]; small intestine, n = 4, read-out: Small intestine uptake): 0.96 ± 0.2 %ID/g
tissue uptake at 1 h ([1]; spleen, 100 ug, blocked (100 µg blocking agent co-injected), read-out: Spleen uptake): 0.53 ± 0.15 %ID/g
tissue uptake at 1 h ([1]; spleen, n = 4, read-out: Spleen uptake): 0.24 ± 0.1 %ID/g
tissue uptake at 1 h ([1]; stomach, 100 ug, blocked (100 µg blocking agent co-injected), read-out: Stomach uptake): 0.38 ± 0.06 %ID/g
tissue uptake at 1 h ([1]; stomach, n = 4, read-out: Stomach uptake): 0.77 ± 0.29 %ID/g
tissue uptake at 1 h ([1]; testes, 100 ug, blocked (100 µg blocking agent co-injected), read-out: Testes uptake): 0.76 ± 0.29 %ID/g
tissue uptake at 1 h ([1]; testes, n = 4, read-out: Testes uptake): 0.2 ± 0.06 %ID/g
SMILES: CC(C)C[C@H](NC(=O)[C@H](Cc1cnc[nH]1)N(C)C(=O)CNC(=O)[C@@H](NC(=O)[C@H](C)NC(=O)[C@H](Cc1c[nH]c2ccccc12)NC(=O)[C@H](CCC(N)=O)NC(=O)[C@@H](Cc1ccccc1)NC(=O)CN1CCC(NC(=O)CN2CCN(CC(=O)O)CCN(CC(=O)O)CCN(CC(=O)O)CC2)CC1)C(C)(C)C)C(=O)N1CC(F)(F)C[C@H]1C(N)=O [[^68Ga]Ga-LW02060, metal not drawn]
